Test results published in patent US20240325398A1, “COMBINATION THERAPIES” (Infinity Pharmaceuticals, Inc., priority 2014, published 2024).

Legend:
HH = assay: Combination study, ATPLite 72 h, dose matrix (Synergy Score, CI50); assay type: cell-based; conditions: combination with Compound 1
Protocol: The method is described as follows.
Additive effect is CI=1.0. […] Antagonistic effect is CI>1.0.
The Synergy Score is calculated as: […]

HBL-1 = assay: as above; conditions: combination with Compound 1, 72 h
OCI-Ly3 = assay: as above; conditions: combination with Compound 1; OCI-Ly3; 72 h
U-2932 = assay: as above; conditions: combination with Compound 1, 72 h
TMD8 = assay: as above; conditions: combination with Compound 1; TMD8; 72 h
OCI-Ly7 = assay: as above; conditions: combination with Compound 1, 72 h
SU-DHL-4-epst = assay: as above; conditions: combination with Compound 1, 72 h
Protocol: (§1) Cells are thawed from a liquid nitrogen preserved state. Once cells have been expanded and divide at their expected doubling times, screening begins. Cells are seeded in growth media in either black 1536-well or 384-well tissue culture treated plates. Cells are then equilibrated in assay plates via centrifugation and placed in incubators attached to the Dosing Modules at 37° C. for 24 hours before treatment. […] These Tzero (To) plates are read using ultra-sensitive luminescence on Envision plate readers (Perkin Elmer). Treated assay plates are incubated with compound for 72 hours. After 72 hours, plates are developed for endpoint analysis using ATPLite. All data points are collected via automated processes, quality controlled and analyzed using Zalicus software.
(§2) The measure of effect in the experiment can be the inhibition of cellular response relative to the untreated level (vehicle alone). […] The inhibition ranges from 0% at the untreated level to 100% when T=0. Inhibition levels are negative for agents that actually increase levels.
(§3) Growth Inhibition (GI) is used as a measure of cell viability. […] A GI reading of 100% represents complete growth inhibition—T72 compound-treated and T0 vehicle signals are matched. […] A GI reading of 200% represents complete death of all cells in the culture well. Compounds reaching an activity plateau of GI 200% are considered cytotoxic. GI is calculated by applying the following test and equation:
(§4) Combination analysis data were collected in a 6×6 dose matrix. Synergy is calculated by comparing a combination's response to those of its single compound, against the drug-with-itself dose-additive reference model. Deviations from dose additivity may be assessed visually on an isobologram or numerically with a Combination Index (CI). […] Additive effect is CI=1.0. […] Antagonistic effect is CI>1.0.
(§5) To measure combination effects in excess of Loewe additivity, a scalar measure to characterize the strength of synergistic interaction termed the Synergy Score is devised. The Synergy Score is calculated as:
(§6) The fractional inhibition for each component agent and combination point in the matrix is calculated relative to the median of all vehicle-treated control wells. The Synergy Score equation integrates the experimentally-observed activity volume at each point in the matrix in excess of a model surface numerically derived from the activity of the component agents using the Loewe model for additivity. Additional terms in the Synergy Score equation (above) are used to normalize for various dilution factors used for individual agents and to allow for comparison of synergy scores across an entire experiment. The inclusion of positive inhibition gating or an Idata multiplier removes noise near the zero effect level, and biases results for synergistic interactions at that occur at high activity levels.
(§7) Loewe Volume (Loewe Vol) is used to assess the overall magnitude of the combination interaction in excess of the Loewe additivity model. Loewe Volume is particularly useful when distinguishing synergistic increases in a phenotypic activity (positive Loewe Volume) versus synergistic antagonisms (negative Loewe Volume). […] This model defines additivity as a non-synergistic combination interaction where the combination dose matrix surface should be indistinguishable from either drug crossed with itself. The calculation for Loewe additivity is:

DOHH-2 = assay: as above; conditions: combination with Compound 1, 72 h
Protocol: as §1, §2, §3, §4, §5, §6, §7

Farage = assay: as above; conditions: combination with Compound 1; Farage; 72 h
Protocol: as §1
(§8) where T is treated cell count and V is untreated (vehicle) cell count (at 72 hours). I ranges from 0% (when T=V) to 100% (when T=0). […] The measure of effect in the experiment can be the inhibition of cellular response relative to the untreated level (vehicle alone). […] The inhibition ranges from 0% at the untreated level to 100% when T=0. Inhibition levels are negative for agents that actually increase levels. Other effect measures, such as an activity ratio r=T/V may be more appropriate for some assays. When activity ratios (e.g, fold increase over stimulated control) are being used, the effect can be measured using an induction 1=ln(T/V). With this definition, all effect expressions are the same as for inhibition.
as §3, §4
The isobologram was drawn by identifying the locus of concentrations that correspond to crossing the indicated inhibition level. This is done by finding the crossing point for each single agent concentration in a dose matrix across the concentrations of the other single agent. Practically, each vertical concentration CY is held fixed while a bisection algorithm is used to identify the horizontal concentration CX in combination with that vertical dose that gives the chosen effect level in the response surface Z(CX,CY). These concentrations are then connected by linear interpolation to generate the isobologram display. For synergistic interactions, the isobologram contour fall below the additivity threshold and approaches the origin, and an antagonistic interaction would lie above the additivity threshold. The error bars represent the uncertainty arising from the individual data points used to generate the isobologram. The uncertainty for each crossing point is estimated from the response errors using bisection to find the concentrations where Z−αZ(CX,CY) and Z+σZ(CX,CY) cross Icut, where αZ is the standard deviation of the residual error on the effect scale.
as §5
The fractional inhibition for each component agent and combination point in the matrix is calculated relative to the median of all vehicle-treated control wells.

SU-DHL-10-epst = assay: as above; conditions: combination with Compound 1, 72 h
Protocol: as §1, §2, §3, §4, §5, §6, §7

RL = assay: as above; conditions: combination with Compound 1, 72 h
KARPAS-422 = assay: as above; conditions: combination with Compound 1, 72 h
WSU-NHL = assay: as above; conditions: combination with Compound 1, 72 h
KARPAS-299 = assay: as above; conditions: combination with Compound 1
GRANTA-519 = assay: as above; conditions: combination with Compound 1
Jeko-1 = assay: as above; conditions: combination with Compound 1
Mino = assay: as above; conditions: combination with Compound 1
NCI-H929 = assay: as above; conditions: combination with Compound 1
Protocol: as §1, §8, §3, §4, §5, §6
Loewe Volume (Loewe Vol) is used to assess the overall magnitude of the combination interaction in excess of the Loewe additivity model. Loewe Volume is particularly useful when distinguishing synergistic increases in a phenotypic activity (positive Loewe Volume) versus synergistic antagonisms (negative Loewe Volume). […] This model defines additivity as a non-synergistic combination interaction where the combination dose matrix surface should be indistinguishable from either drug crossed with itself.

[1] = as above; conditions: combination with Compound 1; OPM-2
OMP-2 = assay: as above; conditions: combination with Compound 1; OPM-2
RPMI-8226 = assay: as above; conditions: combination with Compound 1

CCCCCCCCCCCCCCCCCCOP(=O)([O-])OC1CC[N+](C)(C)CC1 [perifosine, 1,1-dimethylpiperidinium-4-yl octadecyl phosphate]
CI50 growth inhibition (HH): W (W=≥1) | CI50 inhibition (HH): S (S=0.01 to <0.5) | Synergy Score growth inhibition (HH): A3 (A3=>3) | Synergy Score inhibition (HH): A2 (A2=1 to <3) | CI50 growth inhibition (HBL-1): U (U=0.7 to <1) | CI50 inhibition (HBL-1): W (W=≥1) | Synergy Score growth inhibition (HBL-1): A3 (A3=>3) | Synergy Score inhibition (HBL-1): A1 (A1=0.0001 to <1) | CI50 growth inhibition (OCI-Ly3): W (W=≥1) | CI50 inhibition (OCI-Ly3): W (W=≥1) | Synergy Score growth inhibition (OCI-Ly3): A1 (A1=0.0001 to <1) | Synergy Score inhibition (OCI-Ly3): A1 (A1=0.0001 to <1) | CI50 growth inhibition (U-2932): W (W=≥1) | CI50 inhibition (U-2932): W (W=≥1) | Synergy Score growth inhibition (U-2932): A1 (A1=0.0001 to <1) | Synergy Score inhibition (U-2932): A1 (A1=0.0001 to <1) | CI50 growth inhibition (TMD8): T (T=0.5 to <0.7) | CI50 inhibition (TMD8): T (T=0.5 to <0.7) | Synergy Score growth inhibition (TMD8): A2 (A2=1 to <3) | Synergy Score inhibition (TMD8): A2 (A2=1 to <3) | CI50 growth inhibition (OCI-Ly7): U (U=0.7 to <1) | CI50 inhibition (OCI-Ly7): W (W=≥1) | Synergy Score growth inhibition (OCI-Ly7): A2 (A2=1 to <3) | Synergy Score inhibition (OCI-Ly7): A1 (A1=0.0001 to <1) | CI50 growth inhibition (SU-DHL-4-epst): S (S=0.01 to <0.5) | CI50 inhibition (SU-DHL-4-epst): U (U=0.7 to <1) | Synergy Score growth inhibition (SU-DHL-4-epst): A2 (A2=1 to <3) | Synergy Score inhibition (SU-DHL-4-epst): A1 (A1=0.0001 to <1) | CI50 growth inhibition (DOHH-2): T (T=0.5 to <0.7) | CI50 inhibition (DOHH-2): U (U=0.7 to <1) | Synergy Score growth inhibition (DOHH-2): A3 (A3=>3) | Synergy Score inhibition (DOHH-2): A2 (A2=1 to <3) | CI50 growth inhibition (Farage): S (S=0.01 to <0.5) | CI50 inhibition (Farage): T (T=0.5 to <0.7) | Synergy Score growth inhibition (Farage): A3 (A3=>3) | Synergy Score inhibition (Farage): A2 (A2=1 to <3) | CI50 growth inhibition (SU-DHL-10-epst): T (T=0.5 to <0.7) | CI50 inhibition (SU-DHL-10-epst): U (U=0.7 to <1) | Synergy Score growth inhibition (SU-DHL-10-epst): A2 (A2=1 to <3) | Synergy Score inhibition (SU-DHL-10-epst): A2 (A2=1 to <3) | CI50 growth inhibition (RL): W (W=≥1) | CI50 inhibition (RL): W (W=≥1) | Synergy Score growth inhibition (RL): A1 (A1=0.0001 to <1) | Synergy Score inhibition (RL): A1 (A1=0.0001 to <1) | CI50 growth inhibition (KARPAS-422): W (W=≥1) | CI50 inhibition (KARPAS-422): U (U=0.7 to <1) | Synergy Score growth inhibition (KARPAS-422): A1 (A1=0.0001 to <1) | Synergy Score inhibition (KARPAS-422): A1 (A1=0.0001 to <1) | CI50 growth inhibition (WSU-NHL): U (U=0.7 to <1) | CI50 inhibition (WSU-NHL): T (T=0.5 to <0.7) | Synergy Score growth inhibition (WSU-NHL): A3 (A3=>3) | Synergy Score inhibition (WSU-NHL): A2 (A2=1 to <3) | CI50 growth inhibition (KARPAS-299): W (W=≥1) | CI50 inhibition (KARPAS-299): W (W=≥1) | Synergy Score growth inhibition (KARPAS-299): A1 (A1=0.0001 to <1) | Synergy Score inhibition (KARPAS-299): A1 (A1=0.0001 to <1) | CI50 growth inhibition (GRANTA-519): S (S=0.01 to <0.5) | CI50 inhibition (GRANTA-519): W (W=≥1) | Synergy Score growth inhibition (GRANTA-519): A2 (A2=1 to <3) | Synergy Score inhibition (GRANTA-519): A1 (A1=0.0001 to <1) | CI50 growth inhibition (Jeko-1): U (U=0.7 to <1) | CI50 inhibition (Jeko-1): W (W=≥1) | Synergy Score growth inhibition (Jeko-1): A1 (A1=0.0001 to <1) | Synergy Score inhibition (Jeko-1): A1 (A1=0.0001 to <1) | CI50 growth inhibition (Mino): U (U=0.7 to <1) | CI50 inhibition (Mino): W (W=≥1) | Synergy Score growth inhibition (Mino): A2 (A2=1 to <3) | Synergy Score inhibition (Mino): A1 (A1=0.0001 to <1) | CI50 growth inhibition (NCI-H929): U (U=0.7 to <1) | CI50 inhibition (NCI-H929): W (W=≥1) | Synergy Score growth inhibition (NCI-H929): A2 (A2=1 to <3) | Synergy Score inhibition (NCI-H929): A1 (A1=0.0001 to <1) | CI50 growth inhibition [1]: U (U=0.7 to <1) | CI50 inhibition (OMP-2): W (W=≥1) | Synergy Score growth inhibition (OMP-2): A2 (A2=1 to <3) | Synergy Score inhibition (OMP-2): A1 (A1=0.0001 to <1) | CI50 growth inhibition (RPMI-8226): T (T=0.5 to <0.7) | CI50 inhibition (RPMI-8226): U (U=0.7 to <1) | Synergy Score growth inhibition (RPMI-8226): A3 (A3=>3) | Synergy Score inhibition (RPMI-8226): A1 (A1=0.0001 to <1)

O=C(NOC[C@H](O)CO)c1ccc(F)c(F)c1Nc1ccc(I)cc1F [PD0325901]
CI50 growth inhibition (HH): W (W=≥1) | CI50 inhibition (HH): U (U=0.7 to <1) | Synergy Score growth inhibition (HH): A2 (A2=1 to <3) | Synergy Score inhibition (HH): A1 (A1=0.0001 to <1) | CI50 growth inhibition (HBL-1): T (T=0.5 to <0.7) | Synergy Score growth inhibition (HBL-1): A2 (A2=1 to <3) | Synergy Score inhibition (HBL-1): A1 (A1=0.0001 to <1) | CI50 growth inhibition (OCI-Ly3): S (S=0.01 to <0.5) | Synergy Score growth inhibition (OCI-Ly3): A2 (A2=1 to <3) | Synergy Score inhibition (OCI-Ly3): A1 (A1=0.0001 to <1) | CI50 growth inhibition (U-2932): U (U=0.7 to <1) | Synergy Score growth inhibition (U-2932): A2 (A2=1 to <3) | Synergy Score inhibition (U-2932): A1 (A1=0.0001 to <1) | CI50 growth inhibition (TMD8): U (U=0.7 to <1) | CI50 inhibition (TMD8): U (U=0.7 to <1) | Synergy Score growth inhibition (TMD8): A3 (A3=>3) | Synergy Score inhibition (TMD8): A3 (A3=>3) | Synergy Score growth inhibition (OCI-Ly7): A1 (A1=0.0001 to <1) | Synergy Score inhibition (OCI-Ly7): A1 (A1=0.0001 to <1) | CI50 growth inhibition (SU-DHL-4-epst): S (S=0.01 to <0.5) | CI50 inhibition (SU-DHL-4-epst): T (T=0.5 to <0.7) | Synergy Score growth inhibition (SU-DHL-4-epst): A2 (A2=1 to <3) | Synergy Score inhibition (SU-DHL-4-epst): A2 (A2=1 to <3) | CI50 growth inhibition (DOHH-2): W (W=≥1) | CI50 inhibition (DOHH-2): W (W=≥1) | Synergy Score growth inhibition (DOHH-2): A1 (A1=0.0001 to <1) | Synergy Score inhibition (DOHH-2): A1 (A1=0.0001 to <1) | CI50 growth inhibition (Farage): W (W=≥1) | CI50 inhibition (Farage): W (W=≥1) | Synergy Score growth inhibition (Farage): A2 (A2=1 to <3) | Synergy Score inhibition (Farage): A1 (A1=0.0001 to <1) | CI50 growth inhibition (SU-DHL-10-epst): S (S=0.01 to <0.5) | CI50 inhibition (SU-DHL-10-epst): S (S=0.01 to <0.5) | Synergy Score growth inhibition (SU-DHL-10-epst): A3 (A3=>3) | Synergy Score inhibition (SU-DHL-10-epst): A2 (A2=1 to <3) | Synergy Score growth inhibition (RL): A1 (A1=0.0001 to <1) | Synergy Score inhibition (RL): A1 (A1=0.0001 to <1) | CI50 growth inhibition (KARPAS-422): S (S=0.01 to <0.5) | CI50 inhibition (KARPAS-422): T (T=0.5 to <0.7) | Synergy Score growth inhibition (KARPAS-422): A2 (A2=1 to <3) | Synergy Score inhibition (KARPAS-422): A2 (A2=1 to <3) | CI50 growth inhibition (WSU-NHL): S (S=0.01 to <0.5) | CI50 inhibition (WSU-NHL): S (S=0.01 to <0.5) | Synergy Score growth inhibition (WSU-NHL): A3 (A3=>3) | Synergy Score inhibition (WSU-NHL): A3 (A3=>3) | CI50 growth inhibition (KARPAS-299): S (S=0.01 to <0.5) | Synergy Score growth inhibition (KARPAS-299): A2 (A2=1 to <3) | Synergy Score inhibition (KARPAS-299): A1 (A1=0.0001 to <1) | CI50 growth inhibition (GRANTA-519): S (S=0.01 to <0.5) | Synergy Score growth inhibition (GRANTA-519): A3 (A3=>3) | Synergy Score inhibition (GRANTA-519): A2 (A2=1 to <3) | CI50 growth inhibition (Jeko-1): U (U=0.7 to <1) | Synergy Score growth inhibition (Jeko-1): A1 (A1=0.0001 to <1) | Synergy Score inhibition (Jeko-1): A1 (A1=0.0001 to <1) | CI50 growth inhibition (Mino): S (S=0.01 to <0.5) | CI50 inhibition (Mino): S (S=0.01 to <0.5) | Synergy Score growth inhibition (Mino): A3 (A3=>3) | Synergy Score inhibition (Mino): A3 (A3=>3) | CI50 growth inhibition (NCI-H929): S (S=0.01 to <0.5) | CI50 inhibition (NCI-H929): U (U=0.7 to <1) | Synergy Score growth inhibition (NCI-H929): A3 (A3=>3) | Synergy Score inhibition (NCI-H929): A2 (A2=1 to <3) | CI50 growth inhibition [1]: U (U=0.7 to <1) | CI50 inhibition (OMP-2): W (W=≥1) | Synergy Score growth inhibition (OMP-2): A3 (A3=>3) | Synergy Score inhibition (OMP-2): A2 (A2=1 to <3) | CI50 growth inhibition (RPMI-8226): U (U=0.7 to <1) | Synergy Score growth inhibition (RPMI-8226): A2 (A2=1 to <3) | Synergy Score inhibition (RPMI-8226): A2 (A2=1 to <3)
